The values below are quoted from earlier work in US9248110B2, “Compositions and methods of treating and preventing lung cancer and lymphangioleiomyomatosis” (priority 2010, dated 2016).

Each structure is given as a SMILES string. Like-named read-outs stand apart in the source and are kept apart here.

The subject of the data set is Lewis lung LLC1 cells. The note with it: orally administered.

On to `CN(C)C(=N)N=C(N)N` [metformin], for which the tumor growth entry is recorded as “reduce tumor growth” (mice fed a high-energy diet) and “no effect on tumor growth” (mice on a control diet).
